Tests used:
[1] = system: Microglia; test: Anti-inflammatory activity against mouse Microglia cells assessed as reduction in LPS-induced IL-1beta production; type: functional, cell-based
[2] = Cytotoxicity against mouse Microglia cells assessed as reduction in cell viability; type: toxicity, cell-based

C=C1[C@@H]2[C@H]3OC(=O)[C@@H](C)[C@@H]3[C@@H](O)CC(=C)[C@@H]2C[C@@H]1O
IC50 [1]: 54.2 µM | CC50 [2]: > 100 µM

C=C1[C@@H]2[C@H]3OC(=O)[C@@H](CN4C=C(C(N)=O)C[C@@H](CO)C4=O)[C@@H]3[C@@H](O)CC(=C)[C@@H]2C[C@@H]1O
IC50 [1]: 86.7 µM | CC50 [2]: > 100 µM

C=C1[C@@H]2[C@H]3OC(=O)[C@@H](CNC(=O)[C@H](CO)CN4CCC[C@H]4C(=O)O)[C@@H]3[C@@H](O)CC(=C)[C@@H]2C[C@@H]1O
IC50 [1]: 62.6 µM | CC50 [2]: > 100 µM

C=C1[C@@H]2[C@H]3OC(=O)[C@@H](C)[C@@H]3[C@@H](O[C@@H]3O[C@H](CO)[C@@H](O)[C@H](O)[C@H]3O)CC(=C)[C@@H]2C[C@@H]1O
IC50 [1]: 44.5 µM | CC50 [2]: > 100 µM
